Results reported in paper PMC9229919, “4-Aminoquinoline-Based Adamantanes as Potential Anticholinesterase Agents in Symptomatic Treatment of Alzheimer’s Disease” (Pharmaceutics, 2022).
Read-outs that look alike come from different tables or passages of the source.

Columns and labels:
recombinant human AChE = biological target: T1, recombinant human AChE (Homo sapiens, UniProt P22303); experiment: biochemical; format: biochemical
T1 construct: gift of Dr Florian Nachon (Armed Forces Biomedical Research Institute, Brétigny-sur-Orge, France)
T1 sequence (P22303 32-614): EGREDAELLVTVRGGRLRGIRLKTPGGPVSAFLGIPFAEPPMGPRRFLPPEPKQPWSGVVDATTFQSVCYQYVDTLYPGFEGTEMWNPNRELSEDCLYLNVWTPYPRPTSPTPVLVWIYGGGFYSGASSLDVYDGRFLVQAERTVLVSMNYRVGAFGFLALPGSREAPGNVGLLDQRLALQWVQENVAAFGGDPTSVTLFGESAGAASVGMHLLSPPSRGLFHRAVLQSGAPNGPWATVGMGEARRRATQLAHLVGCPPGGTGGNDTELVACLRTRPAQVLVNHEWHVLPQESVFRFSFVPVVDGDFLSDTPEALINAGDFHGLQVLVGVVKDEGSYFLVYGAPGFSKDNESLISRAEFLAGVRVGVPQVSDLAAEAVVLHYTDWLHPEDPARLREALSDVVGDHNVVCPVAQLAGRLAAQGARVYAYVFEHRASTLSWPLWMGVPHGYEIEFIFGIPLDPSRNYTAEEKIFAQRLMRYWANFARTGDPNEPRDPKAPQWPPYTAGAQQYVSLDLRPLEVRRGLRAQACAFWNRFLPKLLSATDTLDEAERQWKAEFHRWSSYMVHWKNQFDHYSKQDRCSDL
How it was run: (§1)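 Modified Ellman assay with acetylthiocholine and DTNB in 0.1 M sodium phosphate pH 7.4 (enzymes diluted with 0.1% BSA), ≤0.2% DMSO, 25 °C. At least three inhibitor concentrations per substrate level; Ki,app from Hunter–Downs equation, Ki from y-intercept and inhibition type from Ki,app vs [S].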

purified human BChE = biological target: T2, purified human BChE (Homo sapiens, UniProt P06276); experiment: biochemical; format: biochemical
T2 construct: possibly also a gift of Dr Florian Nachon (the sentence is ambiguous)
T2 sequence (P06276 29-602): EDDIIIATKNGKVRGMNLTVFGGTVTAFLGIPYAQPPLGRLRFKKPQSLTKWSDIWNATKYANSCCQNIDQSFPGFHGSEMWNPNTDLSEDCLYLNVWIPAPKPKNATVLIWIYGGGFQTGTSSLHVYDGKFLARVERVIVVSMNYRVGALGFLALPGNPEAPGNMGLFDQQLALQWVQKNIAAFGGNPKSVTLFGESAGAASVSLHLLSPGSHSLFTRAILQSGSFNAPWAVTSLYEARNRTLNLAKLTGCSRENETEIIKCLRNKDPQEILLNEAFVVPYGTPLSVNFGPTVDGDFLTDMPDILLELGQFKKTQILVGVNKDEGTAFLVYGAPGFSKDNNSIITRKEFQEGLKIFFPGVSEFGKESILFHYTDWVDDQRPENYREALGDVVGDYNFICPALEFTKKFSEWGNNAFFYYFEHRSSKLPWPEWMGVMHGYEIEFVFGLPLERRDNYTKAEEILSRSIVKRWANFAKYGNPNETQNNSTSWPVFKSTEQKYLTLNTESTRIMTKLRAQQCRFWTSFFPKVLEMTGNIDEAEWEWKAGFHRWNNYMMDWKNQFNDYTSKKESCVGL
How it was run: as §1

[1] = Reverse-phase thin-layer chromatographic lipophilicity (RF, RM0); format: physicochemical; conditions: for RM0: intercept of RM = RM0 + bC; for b: slope of RM = RM0 + bC
How it was run: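 Lipophilicity from RP-TLC retention at 22±2 °C over a 4.5 cm development distance. Eluents: organic modifier (methanol, acetone or dioxane), water and hydrochloric acid, methanol stepped by 10%. RM0 obtained from RF.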

[2] = Ferric reducing antioxidant power (FRAP) assay; conditions: mean ± standard error of three experiments;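 note: expressed as µM Fe2+ equivalents from an FeSO4·7H2O standard curve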
How it was run: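 Ferric-TPTZ reduction measured by absorbance at 593 nm after 60 min at 37 °C in pH 3.6 acetate-buffered TPTZ/FeCl3 reagent, with test compounds at 10 and 100 µM. FRAP values calculated from an Fe2SO4·7H2O standard curve. Data from three independent experiments.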

[3] = standard compounds of the interpolation method; cited from earlier work
[4] = Acetone/Water/Hydrochloric acid (conc.)
[5] = Dioxane/Water/Hydrochloric acid (conc.)
[6] = Methanol/Water/Hydrochloric acid (conc.)

`Clc1ccc2c(NCCCN3CCN(CCCNCCC45CC6CC(CC(C6)C4)C5)CC3)ccnc2c1` [Compound 23] gave an IS (recombinant human AChE; IS = Ki(BChE)/Ki(AChE), IS > 1 selective to AChE) of 4.1, a Ki (recombinant human AChE; log (Ki/µM AChE), read-out: Y Measured 1 log(ki)Ache (converted)) of 0.44 µM and a Ki (recombinant human AChE; ± standard error, 25 °C, ATCh substrate, read-out: Ki AChE) of 0.44 ± 0.09 µM. It also gave a Ki (purified human BChE; logarithm of Ki in µM, BChE, dependent variable of the QSAR model, read-out: Y Measured 2 log(ki)Bche, log (Ki/µM BChE) (converted)) of 1.8 µM, a Ki (purified human BChE; ± standard error, 25 °C, ATCh substrate, read-out: Ki BChE) of 1.8 ± 0.2 µM and an RM0 [1, 4] of 1.784. The b [1, 4] was 2.934, the RM0 [1, 5] was 0.7935 and the b [1, 5] was 1.661. The RM0 [1, 6] was 2.211, the b [1, 6] was 2.892 and the “RF, Methanol/Water/Hydrochloric acid (conc.), mobile phase I” value ([1]; RP-18 silica, I = 90%MeOH/5%H2O/5%HCl) was 0.64. The “RF, Dioxane/Water/Hydrochloric acid (conc.), mobile phase II” value ([1]; RP-18 silica, II = 80%Dioxane/15%H2O/5%HCl) was 0.73, the “RF, Methanol/Water/Hydrochloric acid (conc.), mobile phase II” value ([1]; RP-18 silica, II = 85%MeOH/10%H2O/5%HCl) was 0.66 and the “RF, Acetone/Water/Hydrochloric acid (conc.), mobile phase III” value ([1]; RP-18 silica, III = 70%AC/25%H2O/5%HCl) was 0.62. The “RF, Dioxane/Water/Hydrochloric acid (conc.), mobile phase III” value ([1]; RP-18 silica, III = 70%Dioxane/25%H2O/5%HCl) was 0.71, the “RF, Methanol/Water/Hydrochloric acid (conc.), mobile phase III” value ([1]; RP-18 silica, III = 80%MeOH/15%H2O/5%HCl) was 0.54 and the “RF, Dioxane/Water/Hydrochloric acid (conc.), mobile phase IV” value ([1]; RP-18 silica, IV = 60%Dioxane/35%H2O/5%HCl) was 0.71. For the same compound, the “RF, Acetone/Water/Hydrochloric acid (conc.), mobile phase IV” value ([1]; RP-18 silica, IV = 65%AC/30%H2O/5%HCl) was 0.58, the “RF, Methanol/Water/Hydrochloric acid (conc.), mobile phase IV” value ([1]; RP-18 silica, IV = 75%MeOH/20%H2O/5%HCl) was 0.53 and the “RF, Acetone/Water/Hydrochloric acid (conc.), mobile phase IX” value ([1]; RP-18 silica, IX = 40%AC/55%H2O/5%HCl) was 0.15. For the same compound, the “RF, Methanol/Water/Hydrochloric acid (conc.), mobile phase IX” value ([1]; RP-18 silica, IX = 50%MeOH/45%H2O/5%HCl) was 0.12, the “RF, Dioxane/Water/Hydrochloric acid (conc.), mobile phase V” value ([1]; RP-18 silica, V = 50%Dioxane/45%H2O/5%HCl) was 0.51 and the “RF, Acetone/Water/Hydrochloric acid (conc.), mobile phase V” value ([1]; RP-18 silica, V = 60%AC/35%H2O/5%HCl) was 0.48. For the same compound, the “RF, Methanol/Water/Hydrochloric acid (conc.), mobile phase V” value ([1]; RP-18 silica, V = 70%MeOH/25%H2O/5%HCl) was 0.44, the “RF, Dioxane/Water/Hydrochloric acid (conc.), mobile phase VI” value ([1]; RP-18 silica, VI = 40%Dioxane/55%H2O/5%HCl) was 0.38 and the “RF, Acetone/Water/Hydrochloric acid (conc.), mobile phase VI” value ([1]; RP-18 silica, VI = 55%AC/40%H2O/5%HCl) was 0.42. The “RF, Methanol/Water/Hydrochloric acid (conc.), mobile phase VI” value ([1]; RP-18 silica, VI = 65%MeOH/30%H2O/5%HCl) was 0.37, the “RF, Acetone/Water/Hydrochloric acid (conc.), mobile phase VII” value ([1]; RP-18 silica, VII = 50%AC/45%H2O/5%HCl) was 0.35 and the “RF, Methanol/Water/Hydrochloric acid (conc.), mobile phase VII” value ([1]; RP-18 silica, VII = 60%MeOH/35%H2O/5%HCl) was 0.25. The “RF, Acetone/Water/Hydrochloric acid (conc.), mobile phase VIII” value ([1]; RP-18 silica, VIII = 45%AC/50%H2O/5%HCl) was 0.31, the “RF, Methanol/Water/Hydrochloric acid (conc.), mobile phase VIII” value ([1]; RP-18 silica, VIII = 55%MeOH/40%H2O/5%HCl) was 0.18 and the FRAP ([2]; 10 µM compound) was 1.4 ± 0.1 µM. The FRAP ([2]; 100 µM compound) was 20 ± 5 µM.

In the case of `c1ccc2cc3ccccc3cc2c1` [antracen], the logP [3] is given as 4.45.

In the case of `c1ccc2c(c1)ccc1ccccc12` [fenantren], the logP [3] is listed as 4.46.

In the case of `c1ccc2c(c1)Cc1ccccc1-2` [fluoren], the logP [3] is given as 4.18.

In the case of `O=C1CN=C(c2ccccc2Cl)c2cc([N+](=O)[O-])ccc2N1` [klonazepam], the logP [3] is given as 2.41, the pKa1 [3] is given as 10.5 and the pKa2 [3] is given as 1.5.
